Read-outs that look alike come from different tables or passages of the source.
How the values were obtained:
ECG interval = conditions: rats infused with the antidepressant; cited from earlier work
ADHD [1] = conditions: cited from earlier work
ADHD [2] = test: Two large well-controlled studies of atomoxetine, CAARS scores; type: in vivo, human; conditions: overall
Excerpt: In the second study, these improvements were 30.1% vs. 19.6%, respectively. Overall these two studies have indicated a placebo response of about 20% and difference between active and placebo of about 10%. Moreover, atomoxetine is not a stimulant, a point that provides an effective marketing tool for this drug.

[3] = fatal poisoning / overdose; cited from earlier work
[4] = system: ADD (as defined in DSM III); conditions: 31 patients treated with 4.6 mg/kg, children and adolescents; cited from earlier work
[5] = desipramine treatment; cited from earlier work
hyperactivity (ADHD) = conditions: doses as low as 75 mg/day; cited from earlier work
Sedation = conditions: in vivo
[6] = system: serotonin synthesis in the brain; test: Serotonin synthesis in the brain
[7] = system: noradrenaline reuptake versus serotonin (5HT) reuptake; test: NA:5HT relative potencies based on Ki data (Bolden-Watson and Richelson); type: biochemical; conditions: basis not stated
Excerpt: The selectivity a drug for various receptors may be compared by use of comparative Ki's and not comparative IC 50 values. (Bolden-Watson, C and Richelson, E., Life Sci, (52), 1993, 1023-1029), which is hereby incorporated by reference.

dopamine D2 receptor = dopamine D2 receptor (Homo sapiens, UniProt P14416); test: Activity at the dopamine D2 receptor
Chronic Fatigue Syndrome = test: Example 3: lofepramine in Chronic Fatigue Syndrome patients, cross-over design; type: in vivo, human; conditions: 44 patients, doses up to 210 mg/day over 26 weeks
Method: Forty-four patients meeting the criteria for Chronic Fatigue Syndrome were recruited in a cross-over design. […] Patients were administered lofepramine at doses up to 210 mg/day over the 26 weeks of the study. Patients were assessed using the FibroFatigue Scale (interview scale) and the CDR battery of cognitive tests (computer based assessment of cognition). Other assessments included HADS and Clinical Global Improvement (CGI). Four CDR assessments and 9 Fibrofatigue assessments were carried out.

[8] = toxic levels similar to that found in the SSRI's
DSM-IV ADHD = test: Example 1: case reports of ADHD patients on lofepramine; type: in vivo, human; conditions: for behaviour: child; for general behaviour and concentration: person
Method: Patient is a person with a diagnosis of DSM-IV ADHD. Their education was severely impacted by an inability to sustain attention for any length of time and they were also very disruptive in class. Their inability to sustain attention was causing difficulty at work. They were referred by their primary care physician. They were commenced on lofepramine 70 mg twice daily. […] The dose of lofepramine was increased to 70 mg three times daily. […] Within 48 hours their concentration deteriorated and they were once again in trouble at work. A week later the medication was recommenced and they have now remained well for approximately 4 months. They are performing effectively at work and their parents are happy with the situation. A child had been on methylphenidate for 2 years which was prescribed for ADHD characterised by poor concentration and impulsive behaviour. They stopped taking the medication and deteriorated. When they attended the clinic they were commenced on lofepramine 70 mg twice daily. […] This has been sustained for 4 months.

ADHD [9] = test: Example 2: lofepramine versus placebo in adult patients with ADHD (CAARS); type: in vivo, human; conditions: 20 adult patients, oral 140 to 280 mg/day, 3 months
Method: A study was carried out to access the efficacy of lofepramine compared to placebo in 20 adult patients with ADHD at a single study centre. Active treatment was for 3 months. Patients with DSM-IV diagnosis of ADHD were recruited. Patients were assessed using the patient-rated Connors Adult ADH Rating Scales (CAARS). Initially, there was a single blind placebo period between day 0 and week 3, and patients who responded to placebo were withdrawn. Oral administration of lofepramine (140 mg/day) was commenced from week 3 onwards. Patients showing little response to this dose and tolerable side effects were titrated upwards to 210 mg/day and then to 280 mg/day.

[10] = system: Hypothalamic-Pituitary-Adrenal axis; test: HPA axis activity in CFS; type: in vivo, human; conditions: along with symptomatic relief
Excerpt: While not being bound by any one mechanisms of action, previous work by one of the co-inventors here, has supported the evidence that there is Hypothalamic-Pituitary-Adrenal axis under activity in CFS patients. (Scott […] and […]; Acta Psychiatr Scand 1998 June 97: 450-7).

Chain of dopamine D2 receptor (P14416 whole entry, species assumed): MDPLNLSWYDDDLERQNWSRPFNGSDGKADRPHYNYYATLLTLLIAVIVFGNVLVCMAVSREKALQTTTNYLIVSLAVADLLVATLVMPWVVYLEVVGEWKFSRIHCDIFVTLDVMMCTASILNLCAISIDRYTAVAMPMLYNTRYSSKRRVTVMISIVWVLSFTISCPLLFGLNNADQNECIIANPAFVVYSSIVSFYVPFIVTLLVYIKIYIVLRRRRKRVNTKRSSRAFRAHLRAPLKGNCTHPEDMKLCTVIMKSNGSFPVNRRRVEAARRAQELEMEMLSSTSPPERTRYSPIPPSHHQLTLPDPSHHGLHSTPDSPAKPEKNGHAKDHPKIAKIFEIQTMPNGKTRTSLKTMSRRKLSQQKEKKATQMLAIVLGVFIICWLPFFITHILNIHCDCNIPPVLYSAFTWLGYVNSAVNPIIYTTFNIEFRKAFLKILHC

CN(C)CCC=C1c2ccccc2CCc2ccccc21 [amitriptyline]
effect on ECG interval (ECG interval): prolong the ECG interval

CNCC[C@@H](Oc1ccccc1C)c1ccccc1 [atomoxetine]
mean reduction of CAARS scores (ADHD [1]; first study, placebo 18.1%): 28.3% | mean reduction of CAARS scores (ADHD [1]; second study, placebo 19.6%): 30.1% | difference between active and placebo in reduction of CAARS scores (ADHD [2]): about 10%

CNCCCN1c2ccccc2CCc2ccccc21 [desipramine]
effect on ECG interval (ECG interval): prolong the ECG interval | fatalities per million prescriptions [3]: 200.9 per million prescriptions | patients with a significant response [4]: around 70% | diastolic blood pressure, heart rate and ECG conductance [5]: asymptomatic and generally small increases

CN(C)CCCN1c2ccccc2CCc2ccccc21 [imipramine]
effect on ECG interval (ECG interval): prolong the ECG interval | time to begin to reduce hyperactivity (hyperactivity (ADHD)): 3 to 10 days

CN(CCCN1c2ccccc2CCc2ccccc21)CC(=O)c1ccc(Cl)cc1 [lofepramine]
sedation (Sedation): does not induce sedation | serotonin synthesis in the brain [6]: up-regulate serotonin synthesis in the brain | NA:5HT ratio relative to that of desipramine [7]: about four | NE:5-HT ratio compared with milnacipran [7]: higher than that of milnacipran | activity at the D2 receptor (dopamine D2 receptor): potent activity | FibroFatigue Scale, CDR cognitive tests, HADS and CGI (Chronic Fatigue Syndrome): significant improvement on all scales | cardiotoxicity [8]: very low cardiotoxicity | effect on ECG interval (ECG interval): does not | fatalities per million prescriptions [3]: 1.3 per million prescriptions | behaviour (DSM-IV ADHD; 70 mg three times daily, sustained for 4 months): major improvement | behaviour (DSM-IV ADHD; 70 mg twice daily): No immediate improvement | side-effects (DSM-IV ADHD; patient report): no side-effects | general behaviour and concentration (DSM-IV ADHD; 70 mg three times daily, sustained for 3 months): continued improvement | general behaviour and concentration (DSM-IV ADHD; 70 mg twice daily, after 1 week): significant improvement | CAARS scores versus placebo (ADHD [9]): significant benefit over placebo | HPA activity [10]: induces upregulation of HPA activity

COc1ccc(C(CN(C)C)C2(O)CCCCC2)cc1 (stereo not drawn) [venlafaxine]
fatalities per million prescriptions [3]: 13.2 per million prescriptions
